Here are results for seven compounds from US6855511B2, “Fructosamine oxidase assay: methods and materials” (Protemix Corporation Limited, priority 1998, dated 2005).

Type in all cases: biochemical
Series [1] deals with Human fructosamine oxidase. The series can be described thus: Interference of additives/anticoagulants in the fructosamine oxidase assay. Conditions: additive in the reagent (Heparin 1000 U/L, EDTA 100 μM); control 100. The protocol: (§1) The reagent is 50 mM TES buffer pH 7.4 containing 10 μM cytochrome c (Sigma), and […] 50 μM fructosamine as glycated bovine serum albumin.
(§2) One unit of enzyme was defined as the amount which reduced 1 μmol/minute of cytochrome c in solution under the above assay conditions. The calculation factor is determined from the molar absorptivity for ferrocytochrome c (E550nm) according to the formula: U/L(μmol.min^−1.L^−1)=TV×10^3/ε550nm×SV where • TV=total reaction volume • SV=sample volume (iv) Materials
Cytochrome c is a non-specific reductant and other reducing substances in sera or anticoagulants added to the blood sample at specimen collection may interfere in the assay as shown in Table 4.

Series [2] relates to fructosamine oxidase. Briefly: Specificity of the fructosamine oxidase assay for reactive oxygen species, free radical scavengers added to the reagent. The note with it: free radical scavenger added to the reagent (superoxide dismutase 20 kU/L, catalase 1000 kU/L, mannitol 50 mmol/L); control 15.34 ± 0.16. The protocol:
as §1, §2
The specificity of the assay for reactive oxygen species was tested by measuring degree of inhibition of ferricytochrome c reduction after adding the following oxygen free radical scavengers to the reaction mixture: (a) Superoxide dismutase to selectively remove superoxide; (b) catalase to selectively remove hydrogen peroxide; & (iii) mannitol to scavenge hydroxyl radicals.

Series [3] deals with fructosamine oxidase. Briefly: Fructosamine oxidase inhibitor assay (ferricytochrome c reduction) in human blood plasma. Also on record: velocity constant (K), fraction of the enzyme inhibited in a given period of time: dose or concentration left out as unconfirmed. The note with it: human plasma sample; for IC50: read-out: IC50, concentration of inhibitor causing 50% inactivation of the enzyme. The protocol: as §1, §2
An important application of the current activity assay is as a means to identify potential fructosamine oxidase antagonists and inhibitors. Fructosamine oxidase inhibitors may be hydrazine compounds which bind and block the quinone co-factor, copper chelators which bind and block the copper co-factor, or substrate analogues which mimic the normal substrate of the enzyme. […]
The effectiveness of an enzyme inhibitor is usually expressed by a velocity constant (K) which determines the fraction of the enzyme inhibited in a given period of time by a certain concentration of inhibitor. The specificity of the inhibitor for the active center of the enzyme is indicated by the concentration of inhibitor causing 50% inactivation of the enzyme (IC50). […].

Regarding `O=C(O)CN(CCN(CC(=O)O)CC(=O)O)CC(=O)O` [EDTA, ethylenediamine tetraacetic acid], the “Activity compared with control” value in series [1] turned out to be 26.3%. For catalase, the Enzyme activity in the series on fructosamine oxidase [2] amounted to 12.23 ± 0.03 U/L. Same read-out and setting: under `OC[C@@H](O)[C@@H](O)[C@H](O)[C@H](O)CO` [mannitol] stands 14.96 ± 0.19 U/L; under superoxide dismutase, 9.99 ± 0.03 U/L.

As for `C[C@@](Cc1ccc(O)c(O)c1)(NN)C(=O)O` [carbidopa], in the series with fructosamine oxidase [3], the “velocity constant (K), fraction of the enzyme inhibited in a given period of time” value is recorded as 15 % per minute and the IC50 came to 0.5 µM. The corresponding values for `C[C@H](CS)C(=O)N1CCC[C@H]1C(=O)O` [captopril] are 2.6 % per minute and 0.83 µM.

Take Heparin: the “Activity compared with control” value in series [1] was found to be 24.4%.
